Data from PubChem BioAssay (NCI).
Values joined by “and” are separate entries in the source; they are usually repeats but may differ in a detail not shown here. Equal values may be shown once.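 Five concentrations, 48 hours, 96-well plates. Here, GI50 denotes the concentration required for 50% inhibition of growth. TGI marks complete inhibition of growth.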 Where a SMILES comes first, the peptide text is derived from it. [ ]: non-standard residue; d: D form. 2Nal = N[CH](Cc1ccc2ccccc2c1)C(=O)O

Key:
Experiment in all cases: NCI tumour cell line growth inhibition, 48 h
NCI/ADR-RES ovarian = test system: NCI/ADR-RES ovarian
HOP-62 NSCLC = test system: HOP-62 NSCLC
PC-3 prostate = test system: PC-3 prostate
HCT-116 colon = test system: HCT-116 colon
DMS 273 small cell lung = test system: DMS 273 small cell lung
HOP-18 NSCLC = test system: HOP-18 NSCLC
NCI-H522 lung = test system: NCI-H522 lung
IGROV1 ovarian = test system: IGROV1 ovarian
CAKI-1 renal = test system: CAKI-1 renal
SF-295 CNS = test system: SF-295 CNS

| Structure (SMILES) | GI50 (NCI/ADR-RES ovarian) [µM] | GI50 (HOP-62 NSCLC) [µM] | TGI (HOP-62 NSCLC) | GI50 (PC-3 prostate) [µM] | TGI (PC-3 prostate) [µM] | GI50 (HCT-116 colon) | TGI (HCT-116 colon) | GI50 (DMS 273 small cell lung) [µM] | GI50 (HOP-18 NSCLC) [µM] | TGI (HOP-18 NSCLC) [µM] | GI50 (NCI-H522 lung) [µM] | GI50 (IGROV1 ovarian) [µM] | TGI (IGROV1 ovarian) | GI50 (CAKI-1 renal) [µM] | TGI (CAKI-1 renal) [µM] | TGI (NCI/ADR-RES ovarian) [µM] | TGI (SF-295 CNS) [µM] | TGI (DMS 273 small cell lung) [µM] | TGI (NCI-H522 lung) | GI50 (SF-295 CNS) [µM] |
| --- | --- | --- | --- | --- | --- | --- | --- | --- | --- | --- | --- | --- | --- | --- | --- | --- | --- | --- | --- | --- |
| NC(=Nc1nc(-c2ccccn2)cc2ccccc12)c1ccccn1 | 0.0434 | 0.319 | 38.1 µM | 0.0545 | > 100 | 0.00151 µM | > 100 µM | 0.0231 | 0.258 | 27.1 | 0.0458 | 0.0212 | > 24.1 µM | 0.0422 | > 11.9 |  |  |  |  |  |
| CC(=O)NC(CCCCN(Cc1ccccc1)C(=O)N(CCCl)N=O)C(=O)NCc1ccccc1 (stereo unspecified) |  |  | 47 µM |  | > 100 |  | > 62.6 µM |  |  | 87.5 |  |  | 60 µM |  | 97.7 | 34.3 | 43.4 | > 100 | 53.8 µM |  |
| CC(=O)O/N=C(Cl)/C(Cl)=N/OC(C)=O |  |  | > 100 µM |  |  |  | > 100 µM |  |  | > 100 |  |  | > 100 µM |  | > 100 |  | > 100 | > 100 | > 100 µM |  |
| Cc1cc(C)nc(NS(=O)(=O)c2ccc(NC(=O)c3ccc(Cl)c4c(Nc5ccc(S(=O)(=O)N=C(N)N)cc5)c5ccccc5nc34)cc2)n1 |  |  | > 100 µM |  |  |  | > 100 µM |  |  | > 100 |  |  | > 100 µM |  | > 100 |  | > 100 | > 100 | 36.1 µM |  |
| O=C1C(=O)N(c2cccc(C(F)(F)F)c2)C(=O)C(=O)C1c1nc2ccccc2s1 |  |  | > 100 µM |  | > 100 |  | > 100 µM |  |  | > 100 |  |  | > 100 µM |  | > 100 | > 100 | > 100 | > 100 | > 100 µM |  |
| CN(C)CCNC(=O)c1cccc2ncc(-c3ccccc3)nc12 |  |  | 34.7 µM |  |  |  | 22 µM |  |  | > 64.3 |  |  | > 74.6 µM |  | > 68.6 |  | 58.5 | 17.8 | 21.1 µM |  |
| CC(=O)ON(C(C)=O)C1C(COC(c2ccccc2)(c2ccccc2)c2ccccc2)OC2OC3(CCCC3)OC21 (stereo unspecified) |  |  | > 100 µM |  |  |  | > 100 µM |  |  | > 100 |  |  | > 100 µM |  | > 100 |  | > 100 | > 100 | 6.26 µM |  |
| COc1ccc(NC(=O)CCc2cc(C(C)(C)C)n[nH]2)cc1 |  |  | > 100 µM |  |  |  | > 100 µM |  |  | > 100 |  |  | > 100 µM |  | > 100 |  | > 100 | > 100 | > 100 µM |  |
| CC(C)C(NC(=O)C(CCCCN)NC(=O)C(Cc1c[nH]c2ccccc12)NC(=O)C(Cc1ccc(O)cc1)NC(=O)C(CS)NC(=O)C(N)Cc1ccc2ccccc2c1)C(=O)NC(CS)C(=O)NC(C(N)=O)C(C)O (stereo unspecified) (H-[2Nal]CYWKVCT-NH2; configuration not given here) |  | > 100 | > 100 µM |  | > 12.5 | 2.52 µM | > 12.5 µM and 10.9 µM |  |  | > 100 |  | > 100 | > 100 µM | > 100 | > 100 | > 12.5 | > 100 | > 100 | > 12.5 µM | > 100 |
| CN(O)C(=S)c1ccccc1 |  |  | > 90.8 µM |  | > 59.1 |  | 5.07 µM |  |  | > 100 |  |  | 56.3 µM |  | 81.3 | 7.88 | 35.9 | 4.03 | 0.688 µM |  |
| N#Cc1cc(NC(=O)c2ccccc2)c(=O)n2c1[nH]c1ccccc12 |  |  | 88.1 µM |  |  |  | > 100 µM |  |  | > 100 |  |  | > 100 µM |  | > 100 |  | > 100 | > 100 | 42 µM |  |
| COc1ccc(/C=C\c2cc(OC)c(OC)c(OC)c2)c(O)c1O |  | 1.98 | 68.8 µM and 109 µM |  | 36.1 | 0.136 µM and 1.33 µM | 14.3 µM and 24 µM | 0.303 | 109 | 185 |  | 0.212 | 20.6 µM and 54.2 µM |  |  |  |  | 63.1 | 0.262 µM and 0.823 µM | 0.0286 |
